In one assay the target is pan-HDAC. In words: In vitro enzyme inhibition assay - HDAC (HDAC-Glo I/II), pan-HDAC. Type of assay: biochemical. The procedure, abridged: (§1)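 Eight compound concentrations (5-fold steps from a 1 mM DMSO stock) tested against pan-HDAC, HDAC1 and HDAC8 with HDAC-Glo I/II reagents, luminescence read-out. Percent inhibition normalized to no-inhibitor and no-enzyme wells; IC50 derived by four-parameter logistic fit.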

A further assay relates to NCI-H69 cells. In words: In vitro cell inhibition assay - NCI-H69 cell proliferation (CellTiter-Glo). Type of assay: cell-based. The procedure, abridged: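 Proliferation was assessed after a 7-day compound treatment of cells seeded at 1×10^3 per well. IC50 values came from fitting inhibition rates derived from CellTiter-Glo luminescence.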
For orientation: Cellular ATP, detected with luciferase, serves as a proxy for viable cell number.

A further assay deals with HDAC8 (Homo sapiens (Human), UniProt Q9BY41). In words: In vitro enzyme inhibition assay - HDAC (HDAC-Glo I/II), HDAC8. The class given is biochemical. As to conditions: read-out: HDAC IC50 (nM) HDAC 8. The procedure, abridged: as §1
For another assay, the target named is LSD1 (Homo sapiens (Human), UniProt O60341). Description: In vitro enzyme inhibition assay - LSD1 (HTRF). Type of assay: biochemical. In general terms: In TR-FRET formats the signal depends on donor and acceptor labels being close together.
The next assay has as its system NCI-H1417 cells. Description: In vitro cell inhibition assay - H1417 cell proliferation (CellTiter-Glo). Type of assay: cell-based. The procedure, abridged:
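Cells exposed to 8 compound concentrations (5-fold dilutions) in BEGM with 10% FBS for 7 days at 37° C., 5% CO2. Viable cells measured by CellTiter-Glo luminescence; inhibition versus no-inhibitor and no-cell controls, IC50 fitted.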

The test system of the next assay is DU145 cells. Description: In vitro cell inhibition assay - DU145 cell proliferation (CellTiter-Glo). The class given is cell-based. As to the method:
5. In Vitro Cell Inhibition Assay—DU145 Cell Proliferation
The inhibitory effect of the compounds on cell proliferation was assessed by detecting the number of viable cells using the CellTiter-Glo® reagent. DU145 cells in the logarithmic growth phase were collected and inoculated into transparent bottom 96-well plates at a density 1×10^3 cells per well with 100 μL medium, and incubated at 37° C., 5% CO2 overnight. The compounds were sequentially diluted in a 5-fold concentration gradient with DMSO to obtain 8 different concentrations. These were then diluted with RPMI-640 (containing 10% FBS) cell culture medium to obtain the compound working solution (2×), which was added to the cell supernatant at 100 μL per well. The incubation continued for 6 days at 37° C., 5% CO2. The plate was then removed and equilibrated at room temperature (25° C.) along with the CellTiter-Glo® mixing reagent for 10-30 minutes. After centrifugation, 120 μL of the culture medium was carefully aspirated from each well, and 60 μL of CellTiter-Glo® reagent was added. The cells were thoroughly mixed with the CellTiter-Glo® mixing reagent using a microplate shaker for 2 min. and then incubated at room temperature for 10 min. The 96-well plate was subsequently placed on a multifunctional microplate reader to record the Luminescence values (RLU).
The inhibition rate was calculated using the following formula: […]
Note: ‘Negative’ refers to the group without inhibitors; ‘Blank’ refers to the group without cells.
The IC50 value was determined by fitting the inhibition rate by GraphPad Prism software.

[1] abbreviates: Homo sapiens, NCI-H69, H69 small cell lung cancer cell proliferation.
The mark [2] stands for this setting: Homo sapiens, NCI-H1417, H1417 small cell lung cancer cell proliferation.
Where [3] appears, read: Homo sapiens, DU-145, Du145 prostate cancer cell proliferation.
[4] abbreviates: H69 small cell lung cancer cell proliferation.
[5] abbreviates: H1417 small cell lung cancer cell proliferation.
Where [6] appears, read: Du145 prostate cancer cell proliferation.

What is called IC50 is the point on the concentration scale where inhibition reaches its midpoint.

Counter-ions that a name gives are not always drawn.

Chain of HDAC8 (Q9BY41 whole entry): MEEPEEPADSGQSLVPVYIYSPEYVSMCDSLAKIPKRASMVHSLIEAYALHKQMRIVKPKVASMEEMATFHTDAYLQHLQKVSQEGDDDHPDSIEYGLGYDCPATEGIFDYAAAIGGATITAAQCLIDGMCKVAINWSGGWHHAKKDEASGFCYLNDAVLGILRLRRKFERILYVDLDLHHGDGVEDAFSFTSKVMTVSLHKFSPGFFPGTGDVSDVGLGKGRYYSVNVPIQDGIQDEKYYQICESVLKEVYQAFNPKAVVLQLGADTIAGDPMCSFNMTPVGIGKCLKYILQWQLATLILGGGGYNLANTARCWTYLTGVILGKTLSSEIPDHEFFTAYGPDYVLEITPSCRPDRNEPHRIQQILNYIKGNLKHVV

Consider `COc1ccc(-c2cnc(N3CCC(Nc4cccc(/C=C/C(=O)NO)c4)CC3)c(C#N)c2-c2ccc(C#N)c(F)c2)cc1O` [Example 81, (E)-3-(3-((1-(3-cyano-4-(4-cyano-3-fluorophenyl)-5-(3-hydroxy-4-methoxyphenyl)pyridin-2-yl)piperidin-4-yl)amino)phenyl)-N-hydroxyacrylamide formate], for which the IC50 against pan-HDAC stood at 1220 nM; with NCI-H69 cells (setting [1]), 516 nM; at HDAC8, 695 nM; against LSD1, 140 nM; in the assay on NCI-H1417 cells (setting [2]) it was 73.9 nM; in the assay on DU145 cells (setting [3]), 776 nM.

Regarding `COc1ccc(-c2cnc(N3CCC(Nc4ncc(C(=O)NO)cn4)CC3)c(C#N)c2-c2ccc(C#N)c(F)c2)cc1O` [Example 83, 2-((1-(3-Cyano-4-(4-cyano-3-fluorophenyl)-5-(3-hydroxy-4-methoxyphenyl)pyridin-2-yl)piperidin-4-yl)amino)-N-hydroxypyrimidine-5-carboxamide formate], the IC50 at pan-HDAC worked out at 438 nM; in the assay with NCI-H69 cells (setting [1]), 1140 nM; at HDAC8, 374 nM; at LSD1, 8.51 nM; in the assay on NCI-H1417 cells (setting [2]), 76.8 nM; with DU145 cells (setting [3]) it was 2820 nM.

On to `COc1ccc(-c2cnc(N3CCC(N)(c4ccc(/C=C/C(=O)NO)cc4)CC3)c(C#N)c2-c2ccc(C#N)c(F)c2)cc1O` [Example 85, (E)-3-(4-(4-amino-1-(3-cyano-4-(4-cyano-3-fluorophenyl)-5-(3-hydroxy-4-methoxyphenyl)pyridin-2-yl))piperidin-4-yl)phenyl)-N-hydroxyacrylamide formate], for which the IC50 against pan-HDAC stood at 110 nM; in the assay on NCI-H69 cells (setting [4]), 407 nM; at HDAC8 it was 542 nM; on LSD1 it was 209 nM; in the assay on NCI-H1417 cells (setting [5]), 256 nM; with DU145 cells (setting [6]), 1550 nM.

On to `COc1cc(-c2cnc(N3CCC(NCCc4cccc(/C=C/C(=O)NO)c4)CC3)c(C#N)c2-c2ccc(C#N)c(F)c2)ccc1O` [Example 92, (E)-3-(3-(2-(1-(3-Cyano-4-(4-cyano-3-fluorophenyl)-5-(4-hydroxy-3-methoxyphenyl)pyridin-2-yl)piperidin-4-yl)amino)ethyl) phenyl)-N-hydroxyacrylamide formate], for which the IC50 worked out at 340 nM against pan-HDAC; 497 nM in the assay with NCI-H69 cells (setting [1]); 623 nM at HDAC8; 1.41 nM against LSD1; 63 nM in the assay on NCI-H1417 cells (setting [2]); 2370 nM in the assay on DU145 cells (setting [3]).

For the compound `COc1cc(-c2cnc(N3CC4CC3CC4NCc3ccc(/C=C/C(=O)NO)cc3)c(C#N)c2-c2ccc(C#N)c(F)c2)ccc1O` (stereo not drawn) [Example 94, (E)-3-(4-(2-(3-Cyano-4-(4-cyano-3-fluorophenyl)-5-(4-hydroxy-3-methoxyphenyl)pyridin-2-yl)-2-azabicyclo[2.2.1]heptan-5-yl)amino)methyl) phenyl)-N-hydroxyacrylamide formate], the IC50 was determined as 110 nM on pan-HDAC; 190 nM in the assay on NCI-H69 cells (setting [4]); 256 nM on HDAC8; 173 nM at LSD1; 160 nM in the assay with NCI-H1417 cells (setting [5]); 495 nM in the assay with DU145 cells (setting [6]).

Regarding `COc1cc(-c2cnc(N3CCC(NCc4ccc(/C=C/C(=O)NO)cn4)CC3)c(C#N)c2-c2ccc(C#N)c(F)c2)ccc1O` [Example 95, (E)-3-(6-((1-(3-Cyano-4-(4-cyano-3-fluorophenyl)-5-(4-hydroxy-3-methoxyphenyl)pyridin-2-yl)piperidin-4-yl)amino)methyl) pyridin-3-yl)-N-hydroxyacrylamide formate], the IC50 against pan-HDAC was 49 nM; with NCI-H69 cells (setting [1]), 304 nM; at HDAC8 it was 87.2 nM; on LSD1, 63.6 nM; in the assay with NCI-H1417 cells (setting [2]) it was 335 nM; in the assay on DU145 cells (setting [3]), 628 nM.

In the case of `COc1cc(-c2cnc(N3CCC(NCc4cccc(/C=C/C(=O)NO)c4)CC3)c(C#N)c2-c2ccc(C#N)c(F)c2)ccc1O` [Example 98, (E)-3-(3-((1-(3-Cyano-4-(4-cyano-3-fluorophenyl)-5-(4-hydroxy-3-methoxyphenyl)pyridin-2-yl)piperidin-4-yl)amino)methyl) phenyl)-N-hydroxyacrylamide formate], the IC50 at pan-HDAC was 394 nM; with NCI-H69 cells (setting [1]), 528 nM; on HDAC8, 480 nM; at LSD1, 160 nM; in the assay with NCI-H1417 cells (setting [2]) it was 707 nM; in the assay with DU145 cells (setting [3]) it was 2230 nM.

In the case of `COc1cc(-c2cnc(N3CCC(N(C)Cc4ccc(/C=C/C(=O)NO)cc4)CC3)c(C#N)c2-c2ccc(C#N)c(F)c2)ccc1O` [Example 99, (E)-3-(4-(((1-(3-Cyano-4-(4-cyano-3-fluorophenyl)-5-(4-hydroxy-3-methoxyphenyl)pyridin-2-yl)piperidin-4-yl)(methyl)amino)methyl)phenyl)-N-hydroxyacrylamide formate], the IC50 amounted to 50.9 nM at pan-HDAC; 97.3 nM in the assay on NCI-H69 cells (setting [1]); 120 nM on HDAC8; 9.5 nM at LSD1; 11.8 nM in the assay on NCI-H1417 cells (setting [2]); 122 nM with DU145 cells (setting [3]).

As for `COc1cc(-c2cnc(N3CCC(NCc4ccc(/C=C/C(=O)NO)cc4)CC3)c(C#N)c2-c2ccc(C#N)c(F)c2)ccc1O` [Example 100, (E)-3-(4-((1-(3-Cyano-4-(4-cyano-3-fluorophenyl)-5-(4-hydroxy-3-methoxyphenyl)pyridin-2-yl)piperidin-4-yl)amino)methyl) phenyl)-N-hydroxyacrylamide hydrochloride], the IC50 at pan-HDAC is 35.5 nM; in the assay on NCI-H69 cells (setting [1]), 104 nM; at HDAC8 it was 36 nM; at LSD1 it was 49.5 nM; with NCI-H1417 cells (setting [2]), 118 nM; in the assay on DU145 cells (setting [3]), 313 nM.

Consider `N#Cc1ccc(-c2c(-c3ccc4c(c3)OCO4)cnc(N3CCC(NCc4ccc(/C=C/C(=O)NO)cc4)CC3)c2C#N)cc1F` [Example 103, (E)-3-(4-(((1-(5-(Benzo[d][1,3]dioxol-5-yl)-3-cyano-4-(4-cyano-3-fluorophenyl)pyridin-2-yl)piperidin-4-yl)amino)methyl)phenyl)-N-hydroxyacrylamide formate], for which the IC50 on pan-HDAC is 62.3 nM; with NCI-H69 cells (setting [1]), 83.6 nM; on HDAC8, 159 nM; on LSD1 it was 14.2 nM; with NCI-H1417 cells (setting [2]) it was 43.3 nM; in the assay with DU145 cells (setting [3]), 254 nM.

Turning to `COc1ccc(-c2cnc(N3CCC(NCCCc4ccc(C(=O)NO)cc4)CC3)c(C#N)c2-c2ccc(C#N)c(F)c2)cc1O` [Example 107, 4-(3-(3-Cyano-4-(4-cyano-3-fluorophenyl)-5-(3-hydroxy-4-methoxyphenyl)pyridin-2-yl)piperidin-4-yl)amino)propyl)-N-hydroxybenzamide formate], the IC50 on pan-HDAC was 378 nM; in the assay on NCI-H69 cells (setting [1]), 1040 nM; at HDAC8, 50.6 nM; against LSD1, 1.29 nM; in the assay on NCI-H1417 cells (setting [2]), 10.4 nM; with DU145 cells (setting [3]), 2330 nM.

For `COc1ccc(-c2cnc(N3CCC(NCc4ccc(C#CC(=O)NO)cc4)CC3)c(C#N)c2-c2ccc(C#N)c(F)c2)cc1O` [Example 109, 3-(4-(1-(3-Cyano-4-(4-cyano-3-fluorophenyl)-5-(3-hydroxy-4-methoxyphenyl)pyridin-2-yl)piperidin-4-yl)amino)methyl) phenyl)-N-hydroxypropiolamide formate], the half-maximal inhibitory concentration (IC50) came to 657 nM on pan-HDAC; 411 nM in the assay on NCI-H69 cells (setting [1]); 391 nM on HDAC8; 4.19 nM against LSD1; 2.76 nM in the assay with NCI-H1417 cells (setting [2]); 3820 nM in the assay with DU145 cells (setting [3]).

As for `COc1ccc(-c2cnc(N3CCC(NCCNc4ncc(C(=O)NO)cn4)CC3)c(C#N)c2-c2ccc(C#N)c(F)c2)cc1O` [Example 115, 2-(2-(1-(3-Cyano-4-(4-cyano-3-fluorophenyl)-5-(3-hydroxy-4-methoxyphenyl)pyridin-2-yl)piperidin-4-yl)amino)ethyl) amino)-N-hydroxypyrimidine-5-carboxamide formate], the IC50 against pan-HDAC came out at 20.6 nM; with NCI-H69 cells (setting [1]), 3340 nM; at HDAC8 it was 37.1 nM; against LSD1, 0.16 nM; with NCI-H1417 cells (setting [2]) it was 2.25 nM; in the assay on DU145 cells (setting [3]) it was 6340 nM.

The values above are taken from patent publication US20250304549A1, “HYDROXYAMIDE DERIVATIVE AND USE THEREOF” (SICHUAN HUIYU PHARMACEUTICAL CO., LTD., priority 2022, published 2025).
